How the values were obtained:
[1] = molecular target: T1, human mGlu2 receptors (Homo sapiens, UniProt Q14416); experiment: Potentiation of glutamate-induced increase in intracellular calcium with a mGlu2 expressing cell line (FLIPR); assay type: cell-based; conditions: with submaximal glutamate-site agonist (e.g. 1 μM glutamate)
T1 construct: expressed in transfected cells; host or cells: RGT cells (co-transfected with the glutamate/aspartate transporter GLAST and stably transfected with Galpha15)
T1 sequence (Q14416 19-872): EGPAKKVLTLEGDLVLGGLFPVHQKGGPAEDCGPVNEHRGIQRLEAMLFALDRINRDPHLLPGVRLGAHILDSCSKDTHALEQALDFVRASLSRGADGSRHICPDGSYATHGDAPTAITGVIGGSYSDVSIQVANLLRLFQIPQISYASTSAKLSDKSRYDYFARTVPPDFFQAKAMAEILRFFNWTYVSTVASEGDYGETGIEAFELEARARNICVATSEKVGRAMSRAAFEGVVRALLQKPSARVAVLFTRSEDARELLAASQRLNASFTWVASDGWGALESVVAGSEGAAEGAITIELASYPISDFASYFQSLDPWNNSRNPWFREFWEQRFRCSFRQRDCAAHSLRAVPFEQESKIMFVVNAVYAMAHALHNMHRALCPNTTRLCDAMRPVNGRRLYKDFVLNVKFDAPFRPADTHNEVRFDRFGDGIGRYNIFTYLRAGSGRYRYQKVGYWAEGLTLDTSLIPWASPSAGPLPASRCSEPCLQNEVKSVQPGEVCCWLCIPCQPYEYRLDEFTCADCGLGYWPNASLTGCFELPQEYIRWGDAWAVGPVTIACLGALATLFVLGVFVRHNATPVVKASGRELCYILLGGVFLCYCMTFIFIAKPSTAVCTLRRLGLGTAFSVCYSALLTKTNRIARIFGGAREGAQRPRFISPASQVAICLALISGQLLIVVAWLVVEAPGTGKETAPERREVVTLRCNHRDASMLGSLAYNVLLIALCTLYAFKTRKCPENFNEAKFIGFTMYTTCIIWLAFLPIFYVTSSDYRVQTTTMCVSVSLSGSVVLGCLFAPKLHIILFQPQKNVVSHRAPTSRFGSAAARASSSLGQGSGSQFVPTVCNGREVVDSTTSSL
Experimental: Potentiation of Glutamate-Induced Increase in Intracellular Calcium with a mGlu2 Expressing Cell Line
Cell lines expressing human mGlu2 receptors are derived as previously described (Desai, Burnett, Mayne, Schoepp, Mol. Pharmacol. 48, 648-657, 1995) and cultured in DMEM with 5% dialyzed fetal bovine serum, 1 mM glutamine, 1 mM sodium pyruvate, 50 μg/mL Geneticin G418, and 0.2 mg/mL hygromycin B. Confluent cultures are passaged weekly. These cells are referred to as RGT cells for Rat Glutamate Transporter, and have been co-transfected with the glutamate/aspartate transporter GLAST. The RGT cell line expressing the mGlu2 receptors is stably transfected with the promiscuous G-protein, Galpha15 to change the signaling pathway to the mGlu2 receptor to one that could be easily measured through release of intracellular calcium. Thus, intracellular calcium levels are monitored before and after the addition of drugs on a Fluorometric Imaging Plate Reader (i.e. FLIPR, Molecular Devices). The following buffer is used throughout as an assay buffer: 10 mM KCl, 138 mM NaCl, 5 mM Ca Cl2, 1 mM MgCl2, 4 mM Na H2PO4, 10 mM Glucose, 10 mM HEPES, pH 7.4. Cells that had been plated 48 hours prior at a density of 30-40,000 cells per well in a 96-well plate are loaded with a calcium-sensitive dye for 90 minutes at 25° C. Fluo-3 (2 mM in DMSO, Molecular Probes) are mixed with a equal volume of 10% pluronic acid in DMSO, and diluted to 8 μM into the buffer described above containing 10% fetal bovine serum to make the loading buffer. Following loading of the cells, the loading buffer is removed and replaced with assay buffer prior to drug addition and monitoring on the FLIPR. The resulting signal from the addition of compounds of formula (I) and submaximal concentrations of a glutamate-site agonist (e.g. 1 μM glutamate) is determined by taking the difference of the maximal fluorescent peak height minus the background fluorescence in each well and expressing the results as a percent of the signal seen with a maximal glutamate response (30 μM glutamate, typically about 30-50,000 Relative Fluorescent Units). Least squares curve fitting with a four-parameter equation is then applied to the resulting dose-% response curve to determine the resulting EC50 values.

[2] = molecular target: T2, human CysLT1 receptor (Homo sapiens, UniProt Q9Y271); experiment: Antagonism of LTD4-induced increase in intracellular calcium within a CysLT1 receptor expressing cell line (FLIPR); assay type: cell-based; conditions: 6 nM LTD4; read-out: antagonism of CysLT1 receptors, IC50
T2 construct: expressed in transfected cells; host or cells: AV12-664 (ATCC-9595)
T2 sequence (Q9Y271 1-337): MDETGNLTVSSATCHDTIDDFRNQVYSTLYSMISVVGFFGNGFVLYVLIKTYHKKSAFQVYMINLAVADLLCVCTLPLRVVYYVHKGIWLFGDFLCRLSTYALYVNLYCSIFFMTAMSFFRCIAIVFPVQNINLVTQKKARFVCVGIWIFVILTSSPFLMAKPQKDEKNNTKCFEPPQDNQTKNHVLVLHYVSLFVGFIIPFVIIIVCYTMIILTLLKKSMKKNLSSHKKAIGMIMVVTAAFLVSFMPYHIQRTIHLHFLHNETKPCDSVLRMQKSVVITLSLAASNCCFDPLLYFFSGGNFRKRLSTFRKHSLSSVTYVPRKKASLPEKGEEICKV
Experimental: Antagonism of Cysteinyl-leukotriene D4 (LTD4) -Induced Increase in Intracellular Calcium within a Cysteinyl-Leukotriene 1 (CysLT1) Receptor Expressing Cell Line
Cell lines expressing the human CysLT1 receptor [AV12-664 (ATCC-9595)] are derived and maintained in culture media: DMEM with 5% dialyzed fetal bovine serum, 1 mM glutamine, and 1 mM sodium pyruvate. Confluent cultures are passaged weekly. Intracellular calcium levels are monitored in the CysLT1-expressing cells with the addition of LTD4, with or without prior exposure to the compounds being tested as antagonists with a Fluorometric Imaging Plate Reader (FLIPR, Molecular Devices). The following buffer is used throughout as an assay buffer: Hanks Buffered Saline Solution without phenol red (GIBCO), with 10 mM HEPES pH 7.4. Cells that had been plated 48 hours prior at a density of 20-25,000 cells per well in a 96-well plate are loaded with a calcium-sensitive dye for 90 minutes at 25° C. Fluo-3 (2 mM in DMSO, Molecular Probes) is mixed with an equal volume of 10% pluronic acid in DMSO, and diluted to 8 μM in the buffer described above containing 10% fetal bovine serum to make the loading buffer. Following loading of the cells, the buffer is removed and replaced with assay buffer prior to drug addition and monitoring on the FLIPR for several minutes. The resulting signal from the addition of 6 nM LTD4 (provides approximately 90% of the maximal signal with 25 nM LTD4) is determined by taking the difference of the maximal fluorescent peak height minus the background fluorescence in each well and expressing the results as a percent of the signal seen without pretreatment of the test compound(s). Least squares curve fitting with a four-parameter equation is applied to the resulting dose-% inhibition curve to determine the resulting IC50 values.

Structure (SMILES)	EC50 [1]	IC50 [2]	melting point
CCCc1c(OCc2ccc(Cc3cccc(-c4nn[nH]n4)c3)cc2)ccc(C(C)=O)c1O [Example 60, 1-(2-hydroxy-3-propyl-4-{4-[3-(1H-tetrazol-5-yl)-benzyl]-benzyloxy}-phenyl)-ethanone]	–	< 750 nM	–
CCCc1c(OCc2ccc(C(F)c3cccc(-c4nnn[nH]4)c3)cc2)ccc(C(C)=O)c1O (single isomer, unassigned; isomer 1) [Example 81, 1-[4-(4-{Fluoro-[3-(1H-tetrazol-5-yl)-phenyl]-methyl}-benzyloxy)-2-hydroxy-3-propyl-phenyl]-ethanone isomer 1]	< 100 nM	< 750 nM	–
CCCc1c(OCc2ccc([C@H](O)c3cccc(C(=O)O)c3)cc2)ccc(C(C)=O)c1O [Example 155, 3-{[4-(4-acetyl-3-hydroxy-2-propyl-phenoxymethyl)-phenyl]-(S)-hydroxymethyl}-benzoic acid]	–	–	198.35 °C

Next, values leading:

EC50 [1]	IC50 [2]	melting point	Structure (SMILES)
< 100 nM	< 750 nM	–	CC(=O)c1ccc(OCc2ccc(Cc3cccc(C(=O)O)c3)cc2)c(Cl)c1O [Example 65, 3-[4-(4-Acetyl-2-chloro-3-hydroxy-phenoxymethyl)-benzyl]-benzoic acid]
< 100 nM	< 750 nM	–	CCCc1c(OCc2ccc(C(O)c3ccc(OC)c(-c4nnn[nH]4)c3)cc2)ccc(C(C)=O)c1O (stereo not shown) [Example 47, 1-[2-hydroxy-4-(4-{hydroxy-[4-methoxy-3-(2H-tetrazol-5-yl)-phenyl]-methyl}-benzyloxy)-3-propyl-phenyl]-ethanone]
< 100 nM	< 750 nM	–	CCCc1c(OCc2ccc(C(O)c3cccc(C(=O)O)c3)cc2)ccc(C(C)=O)c1O (single isomer, unassigned; isomer 1) [Example 83, (+)-3-{[4-(4-Acetyl-3-hydroxy-2-propyl-phenoxymethyl)-phenyl]-hydroxy-methyl}-benzoic acid isomer 1]
